Laboratory results published in patent publication US20230183333A1, “COMPOSITION FOR THE TREATMENT OF PHILADELPHIA CHROMOSOME-POSITIVE ACUTE LYMPHOBLASTIC LEUKEMIA” (priority 2020, published 2023).
One block for each molecule: values may come before it.

B4: mouse IL7R on bone marrow-derived pre-B cells (WT or BCR-ABL1 transformed) (receptor, UniProt P16872 21-459, looked up)
chain: ESGNAQDGDLEDADADDHSFWCHSQLEVDGSQHLLTCAFNDSDINTANLEFQICGALLRVKCLTLNKLQDIYFIKTSEFLLIGSSNICVKLGQKNLTCKNMAINTIVKAEAPSDLKVVYRKEANDFLVTFNAPHLKKKYLKKVKHDVAYRPARGESNWTHVSLFHTRTTIPQRKLRPKAMYEIKVRSIPHNDYFKGFWSEWSPSSTFETPEPKNQGGWDPVLPSVTILSLFSVFLLVILAHVLWKKRIKPVVWPSLPDHKKTLEQLCKKPKTSLNVSFNPESFLDCQIHEVKGVEARDEVESFLPNDLPAQPEELETQGHRAAVHSANRSPETSVSPPETVRRESPLRCLARNLSTCNAPPLLSSRSPDYRDGDRNRPPVYQDLLPNSGNTNVPVPVPQPLPFQSGILIPVSQRQPISTSSVLNQEEAYVTMSSFYQNK
notes: whole, on cells; also called IL7Rα

How the values were obtained:
[1] = tested on: BCR-ABL1 transformed cells; assay: Imatinib-induced cell death in the presence of cytokine/chemokine (viability, cell cycle); format: cell-based, mouse; details: added together with 1 μM imatinib
Experimental: BM cells from WT (n=7, female), IL7Rα^Δ (n=7, female), IL7Rα^fl/fl (n=7, female), CXCR4^fl/fl (n=3, female) and FoxO1^fl/fl (n=3, female) mice were collected and retrovirally transformed with either an empty pMIG vector or with a pMIG vector expressing BCR-ABL1. Unless mentioned otherwise, cells were cultured for 3 to 7 days in Iscove's medium (Biochrom AG) containing 10% heat-inactivated FCS (Sigma-Aldrich), 2 mM 1-glutamine, 100 U/ml penicillin (Gibco), 100 U/ml streptomycin (Gibco), and 50 μM 2-mercaptoethanol. The medium was supplemented in excess with the supernatant of J558L plasmacytoma cells stably transfected with a vector encoding murine IL7. Transformed cells were selected by IL7 withdrawal and kept in optimum conditions^38. Retroviral vectors containing either constitutively active STAT5 (STAT5-CA)^34 or an empty vector were used to transduce BCR-ABL1-transformed cells and sorted cells were used then for western blot or flow cytometry analysis. 1-2μM 4-hydroxy tamoxifen (Tam) (Sigma-Aldrich) was used to induce deletion on plasmids expressing tamoxifen-inducible form of Cre (Cre-ER^T2)^14. All cells were tested and found free from mycoplasma.
Antibodies for flow cytometry (CD19, IL7R, CXCR4, FoxO1 and CD11b) were purchased from (eBiosciences, BioLegend, Invitrogen or Cell Signaling). Intracellular flow cytometry staining was performed using Fix and Perm cell permeabilization kit (ADG). Cell viability was measured using Sytox® blue dead cell stain (Life Technologies). FACS Cantoll (BD Biosciences) was used for flow cytometry, and FlowJo v.10.1 was used for data analysis.

[2] = tested on: human Ph+ ALL SUP-B15 cell line; assay: IL7R and CXCR4 surface expression after imatinib in a human Ph+ ALL cell line; format: cell-based; details: 5 μM imatinib, day 7, surface expression
Experimental: 68 BCR-ABL+ ALL patients were treated according to European intergroup study of post-induction treatment of Philadelphia-chromosome-positive ALL (EsPhALL) 2004 and 2010 protocols (NCT00287105) and ALL-Berlin-Frankfurt-Münster (BFM) 2000 (NCT00430118) study. Informed consent was obtained according to institutional regulations, in accordance with the Declaration of Helsinki. 697, SUP-B15, and TOM-1 cell lines were obtained from DSMZ. Ph+ ALL cells containing T3151 mutation was kindly provided by M. Miischen (Shojaee, S., et al. Nat Med 22, 379-387 (2016)).

[3] = tested on: BCR-ABL1 transformed cells; assay: CXCL12-induced Ca2+ flux; format: cell-based, mouse; details: CXCL12 100 ng/ml
Experimental: A total of 1×10^6 cells were loaded with Indo-1 AM (Invitrogen) and used for Ca^2+ analyses^62. 100 ng/m1 of CXCL12 was used for stimulation

[4] = target: T1, human interleukin 7 receptor (IL7R) on SUP-B15 Ph+ BCP-ALL cells (human, UniProt P16871 21-459); assay: Fab-PLA on SUP-B15 cells in comparison to Ramos cells
T1 construct: whole, on cells; In the immunoprecipitation it comes from SUP-B15 lysate; also called IL7Rα; human IL7Rα
T1 sequence (looked up): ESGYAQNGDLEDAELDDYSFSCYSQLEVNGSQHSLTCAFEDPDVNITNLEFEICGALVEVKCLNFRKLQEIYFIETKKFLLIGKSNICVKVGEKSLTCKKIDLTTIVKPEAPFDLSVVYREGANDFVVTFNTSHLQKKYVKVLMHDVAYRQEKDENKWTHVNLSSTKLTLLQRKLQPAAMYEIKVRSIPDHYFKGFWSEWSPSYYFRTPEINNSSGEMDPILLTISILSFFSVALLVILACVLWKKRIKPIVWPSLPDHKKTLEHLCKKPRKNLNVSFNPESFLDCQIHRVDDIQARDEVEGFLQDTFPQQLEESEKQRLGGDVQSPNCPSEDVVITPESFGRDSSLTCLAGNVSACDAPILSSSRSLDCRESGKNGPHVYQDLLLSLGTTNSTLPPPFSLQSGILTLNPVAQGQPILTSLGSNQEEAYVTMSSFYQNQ

[5] = target: B4; assay: proximity ligation assay on mouse pre-B cells
[6] = target: T2, mouse Jak3 in pre-B cells (mouse, UniProt Q62137 1-1100); assay: proximity ligation assay on mouse BCR-ABL1 transformed pre-B cells
T2 construct: Detected in cells by PLA with an antibody from Cell Signaling
T2 sequence (looked up): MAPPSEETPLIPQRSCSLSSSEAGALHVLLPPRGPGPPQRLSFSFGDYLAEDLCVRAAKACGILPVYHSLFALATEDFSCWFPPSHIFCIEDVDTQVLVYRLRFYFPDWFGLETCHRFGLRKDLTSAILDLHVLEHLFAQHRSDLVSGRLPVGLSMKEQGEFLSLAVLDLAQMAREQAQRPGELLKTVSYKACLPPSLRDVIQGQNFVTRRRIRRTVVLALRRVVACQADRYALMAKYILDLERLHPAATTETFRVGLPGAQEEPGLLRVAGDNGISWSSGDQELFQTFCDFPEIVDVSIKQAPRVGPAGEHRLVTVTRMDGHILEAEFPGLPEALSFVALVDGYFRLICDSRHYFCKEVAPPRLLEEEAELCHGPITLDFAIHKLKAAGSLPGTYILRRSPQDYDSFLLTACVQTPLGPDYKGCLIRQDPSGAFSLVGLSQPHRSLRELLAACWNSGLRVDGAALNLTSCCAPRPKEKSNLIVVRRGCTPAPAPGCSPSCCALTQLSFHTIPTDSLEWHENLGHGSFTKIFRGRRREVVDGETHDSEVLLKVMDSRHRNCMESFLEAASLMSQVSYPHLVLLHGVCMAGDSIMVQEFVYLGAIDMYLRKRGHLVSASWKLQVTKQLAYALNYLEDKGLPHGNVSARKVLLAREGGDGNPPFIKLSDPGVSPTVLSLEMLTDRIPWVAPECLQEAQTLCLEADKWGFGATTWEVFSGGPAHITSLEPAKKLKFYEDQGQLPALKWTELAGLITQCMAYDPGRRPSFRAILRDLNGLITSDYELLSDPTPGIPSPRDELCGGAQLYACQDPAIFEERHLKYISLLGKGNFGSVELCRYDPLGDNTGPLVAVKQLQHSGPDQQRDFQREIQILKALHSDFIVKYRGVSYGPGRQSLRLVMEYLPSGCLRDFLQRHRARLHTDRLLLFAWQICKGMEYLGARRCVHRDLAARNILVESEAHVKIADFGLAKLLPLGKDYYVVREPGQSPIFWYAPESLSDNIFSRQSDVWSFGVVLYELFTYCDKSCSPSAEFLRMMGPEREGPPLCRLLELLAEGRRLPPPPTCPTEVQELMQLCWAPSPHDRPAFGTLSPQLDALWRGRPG

[7] = target: T2, mouse Jak3 in pre-B cells; assay: proximity ligation assay on mouse WT and BCR-ABL1 transformed pre-B cells

Molecule: TSLP: the ligand for CRLF2
effect on imatinib-induced cell death [1]: unable to rescue BCR-ABL1 transformed cells from inhibitor-induced cell death

Molecule: Cc1ccc(NC(=O)c2ccc(CN3CCN(C)CC3)cc2)cc1Nc1nccc(-c2cccnc2)n1 [imatinib]
expression of IL7R and CXCR4 [2]: upregulated IL7R and CXCR4

Molecule: c1cc(CN2CCCNCCNCCCNCC2)ccc1CN1CCCNCCNCCCNCC1 [AMD3100]
effect on imatinib-induced cell death [1]: did not affect imatinib treatment
CXCL12-induced Ca2+ response [3]: prevented the Ca^2+ response

Molecule: CXCL12: chemokine, the ligand for CXCR4
effect on imatinib-induced cell death [1]: did not affect imatinib treatment

binding result [4]: binds
B1: human CXCR4 on SUP-B15 cells (receptor, UniProt P61073 1-352, looked up)
chain: MEGISIYTSDNYTEEMGSGDYDSMKEPCFREENANFNKIFLPTIYSIIFLTGIVGNGLVILVMGYQKKLRSMTDKYRLHLSVADLLFVITLPFWAVDAVANWYFGNFLCKAVHVIYTVNLYSSVLILAFISLDRYLAIVHATNSQRPRKLLAEKVVYVGVWIPALLLTIPDFIFANVSEADDRYICDRFYPNDLWVVVFQFQHIMVGLILPGIVILSCYCIIISKLSHSKGHQKRKALKTTVILILAFFACWLPYYIGISIDSFILLEIIKQGCEFENTVHKWISITEALAFFHCCLNPILYAFLGAKFKTSAQHALTSVSRGSSLKILSKGKRGGHSSVSTESESSSFHSS
notes: whole, on cells; In the immunoprecipitation it comes from SUP-B15 lysate; also called C-X-C chemokine receptor 4

B2: IL7: cytokine that binds IL7Rα chain (protein)
chain: DCDIEGKDGKQYESVLMVSIDQLLDSMKEIGSNCLNNEFNFFKRHICDANKEGMFLFRAARKLRQFLKMNSTGDFDLHLLKVSEGTTILLNCTGQVKGRKPAALGEAQPTKSLEENKSLKEQKKLNDLCFLKRLLQEIKTCWNKILMGTKEH
effect on imatinib-induced cell death [1]: counteracted imatinib-induced cell death and restored the cell cycle progression

binding result [5]: binds
binding result [6]: binds
B3: mouse CXCR4 on bone marrow-derived pre-B cells (WT or BCR-ABL1 transformed) (receptor, UniProt P70658 1-359, looked up)
chain: MEPISVSIYTSDNYSEEVGSGDYDSNKEPCFRDENVHFNRIFLPTIYFIIFLTGIVGNGLVILVMGYQKKLRSMTDKYRLHLSVADLLFVITLPFWAVDAMADWYFGKFLCKAVHIIYTVNLYSSVLILAFISLDRYLAIVHATNSQRPRKLLAEKAVYVGVWIPALLLTIPDFIFADVSQGDISQGDDRYICDRLYPDSLWMVVFQFQHIMVGLILPGIVILSCYCIIISKLSHSKGHQKRKALKTTVILILAFFACWLPYYVGISIDSFILLGVIKQGCDFESIVHKWISITEALAFFHCCLNPILYAFLGAKFKSSAQHALNSMSRGSSLKILSKGKRGGHSSVSTESESSSFHSS
notes: whole, on cells

Molecule: B4
binding result [7]: binds
